Experimental data from ChEMBL document CHEMBL1158356, “Synthesis, anti-tuberculosis activity and 3D-QSAR study of amino acid conjugates of 4-(adamantan-1-yl) group containing quinolines” (Eur J Med Chem, 2009).

Key:
[1] = tested on: Mycobacterium tuberculosis; test: Antimycobacterial activity against isoniazid-resistant Mycobacterium tuberculosis H37Rv ATCC 27294 at 3.125 ug/ml; format: functional
[2] = tested on: Mycobacterium tuberculosis; test: Antimycobacterial activity against isoniazid-resistant Mycobacterium tuberculosis H37Rv ATCC 27294 at 1 ug/ml; format: functional

## N=C(N)NCCC[C@H](NC(=O)c1cc(C23CC4CC(CC(C4)C2)C3)c2ccccc2n1)C(=O)NN
[1]
  inhibition at 3.125 µg/mL: 99%
[2]
  inhibition at 1 µg/mL: 60%
